# Assay results: publication doi:10.1101/2021.09.30.462449v1 (biorxiv, 2021)
# pIC50: −log10 of the molar value.
# Experiments:
# ACVR2B = ACVR2B (Homo sapiens, UniProt Q13705); assay: biochemical; details: read-out: % inhibition mean (Lanthascreen)
# TGFBR1 (ALK5) = TGFBR1 (ALK5) (Homo sapiens, UniProt P36897); assay: biochemical; details: read-out: % inhibition mean (Lanthascreen)
# ABL1 Q252H = ABL1 Q252H (Homo sapiens, UniProt P00519, Q252H); assay: biochemical; details: read-out: % inhibition mean (Lanthascreen)
# STK17B (DRAK2) = STK17B (DRAK2) (Homo sapiens, UniProt O94768); assay: biochemical; details: read-out: % inhibition mean (Lanthascreen)
# LATS2 = LATS2 (Homo sapiens, UniProt Q9NRM7); assay: biochemical; details: read-out: % inhibition mean (Lanthascreen)
# VRK2 = VRK2 (Homo sapiens, UniProt Q86Y07); assay: biochemical; details: read-out: % inhibition mean (Lanthascreen)
# KIT V654A = KIT V654A (Homo sapiens, UniProt P10721, V654A); assay: biochemical; details: read-out: % inhibition mean (Lanthascreen)
# MYO3B (MYO3 beta) = MYO3B (MYO3 beta) (Homo sapiens, UniProt Q8WXR4); assay: biochemical; details: read-out: % inhibition mean (Lanthascreen)
# ACVR1 (ALK2) = ACVR1 (ALK2) (Homo sapiens, UniProt Q04771); assay: biochemical; details: read-out: % inhibition mean (Lanthascreen)
# DDR2 = DDR2 (Homo sapiens, UniProt Q16832); assay: biochemical; details: read-out: % inhibition mean (Lanthascreen)
# SLK = SLK (Homo sapiens, UniProt Q9H2G2); assay: biochemical; details: read-out: % inhibition mean (Lanthascreen)
# CDK3/cyclin E1 = CDK3/cyclin E1 (Homo sapiens, UniProt Q00526); assay: biochemical; details: read-out: % inhibition mean (Lanthascreen)
# KIT N822K = KIT N822K (Homo sapiens, UniProt P10721, N822K); assay: biochemical; details: read-out: % inhibition mean (Lanthascreen)
# CAMK1 (CaMK1) = CAMK1 (CaMK1) (Homo sapiens, UniProt Q14012); assay: Adapta universal kinase assay; format: biochemical
# YES1 = YES1 (Homo sapiens, UniProt P07947); assay: biochemical; details: read-out: % inhibition mean (Z'Lyte)
# INSRR (IRR) = INSRR (IRR) (Homo sapiens, UniProt P14616); assay: biochemical; details: read-out: % inhibition mean (Z'Lyte)
# NEK9 = NEK9 (Homo sapiens, UniProt Q8TD19); assay: biochemical; details: read-out: % inhibition mean (Z'Lyte)
# PRKCA (PKC alpha) = PRKCA (PKC alpha) (Homo sapiens, UniProt P17252); assay: biochemical; details: read-out: % inhibition mean (Z'Lyte)
# DAPK3 (ZIPK) = DAPK3 (ZIPK) (Homo sapiens, UniProt O43293); assay: biochemical; details: read-out: % inhibition mean (Z'Lyte)
# SRPK1 = SRPK1 (Homo sapiens, UniProt Q96SB4); assay: biochemical; details: read-out: % inhibition mean (Z'Lyte)
# MAPK11 (p38 beta) = MAPK11 (p38 beta) (Homo sapiens, UniProt Q15759); assay: biochemical; details: read-out: % inhibition mean (Z'Lyte)
# NTRK2 (TRKB) = NTRK2 (TRKB) (Homo sapiens, UniProt Q16620); assay: biochemical; details: read-out: % inhibition mean (Z'Lyte)
# PTK2B (FAK2) = PTK2B (FAK2) (Homo sapiens, UniProt Q14289); assay: biochemical; details: read-out: % inhibition mean (Z'Lyte)
# JAK1 = JAK1 (Homo sapiens, UniProt P23458); assay: biochemical; details: read-out: % inhibition mean (Z'Lyte)
# STK22D (TSSK1) = STK22D (TSSK1) (Homo sapiens, UniProt Q9BXA7); assay: biochemical; details: read-out: % inhibition mean (Z'Lyte)
# PAK6 = PAK6 (Homo sapiens, UniProt Q9NQU5); assay: biochemical; details: read-out: % inhibition mean (Z'Lyte)
# ERBB2 (HER2) = ERBB2 (HER2) (Homo sapiens, UniProt P04626); assay: biochemical; details: read-out: % inhibition mean (Z'Lyte)
# CLK3 = CLK3 (Homo sapiens, UniProt P49761); assay: biochemical; details: read-out: % inhibition mean (Z'Lyte)
# RET S891A = RET S891A (Homo sapiens, UniProt P07949, S891A); assay: biochemical; details: read-out: % inhibition mean (Z'Lyte)
# Sequence of RET S891A (P07949 whole entry S891A): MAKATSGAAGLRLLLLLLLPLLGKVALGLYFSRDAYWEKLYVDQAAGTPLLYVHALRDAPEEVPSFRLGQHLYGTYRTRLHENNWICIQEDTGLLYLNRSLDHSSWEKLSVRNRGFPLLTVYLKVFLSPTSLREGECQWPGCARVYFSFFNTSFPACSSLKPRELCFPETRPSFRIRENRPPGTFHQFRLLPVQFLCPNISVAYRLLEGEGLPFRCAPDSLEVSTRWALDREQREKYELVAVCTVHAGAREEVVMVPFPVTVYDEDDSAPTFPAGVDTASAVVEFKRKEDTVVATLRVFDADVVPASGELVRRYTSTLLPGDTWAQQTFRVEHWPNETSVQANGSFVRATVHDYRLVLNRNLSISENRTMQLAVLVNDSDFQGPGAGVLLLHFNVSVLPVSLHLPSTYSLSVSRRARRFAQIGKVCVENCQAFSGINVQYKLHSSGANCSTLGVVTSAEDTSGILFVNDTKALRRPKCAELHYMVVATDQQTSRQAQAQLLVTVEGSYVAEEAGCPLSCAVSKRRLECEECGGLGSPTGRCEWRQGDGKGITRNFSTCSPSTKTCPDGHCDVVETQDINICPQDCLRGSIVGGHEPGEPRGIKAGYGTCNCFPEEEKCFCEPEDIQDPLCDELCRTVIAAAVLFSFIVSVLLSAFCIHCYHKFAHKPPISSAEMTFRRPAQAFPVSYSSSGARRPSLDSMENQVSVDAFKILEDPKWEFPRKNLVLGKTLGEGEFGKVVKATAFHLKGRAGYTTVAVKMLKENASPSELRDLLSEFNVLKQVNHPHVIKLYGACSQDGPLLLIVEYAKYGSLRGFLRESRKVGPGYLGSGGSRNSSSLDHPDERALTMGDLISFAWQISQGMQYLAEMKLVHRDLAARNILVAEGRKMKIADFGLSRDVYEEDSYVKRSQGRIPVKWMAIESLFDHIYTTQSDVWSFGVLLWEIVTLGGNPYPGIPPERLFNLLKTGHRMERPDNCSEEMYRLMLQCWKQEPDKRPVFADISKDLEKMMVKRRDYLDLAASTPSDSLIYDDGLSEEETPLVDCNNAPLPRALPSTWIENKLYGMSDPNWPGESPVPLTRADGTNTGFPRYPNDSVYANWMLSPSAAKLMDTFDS
# Sequence of MAPK11 (p38 beta) (Q15759 whole entry): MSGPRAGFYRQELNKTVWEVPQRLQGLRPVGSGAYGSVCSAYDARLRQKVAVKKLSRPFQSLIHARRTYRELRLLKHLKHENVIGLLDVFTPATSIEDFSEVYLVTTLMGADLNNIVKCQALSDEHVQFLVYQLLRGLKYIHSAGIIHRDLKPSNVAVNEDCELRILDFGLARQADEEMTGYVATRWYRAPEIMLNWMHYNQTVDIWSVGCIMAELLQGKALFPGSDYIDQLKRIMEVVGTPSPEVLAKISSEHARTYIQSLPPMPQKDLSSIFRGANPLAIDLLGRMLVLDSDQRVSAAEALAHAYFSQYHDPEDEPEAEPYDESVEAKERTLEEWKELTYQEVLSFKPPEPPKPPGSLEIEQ
# Sequence of DDR2 (Q16832 whole entry): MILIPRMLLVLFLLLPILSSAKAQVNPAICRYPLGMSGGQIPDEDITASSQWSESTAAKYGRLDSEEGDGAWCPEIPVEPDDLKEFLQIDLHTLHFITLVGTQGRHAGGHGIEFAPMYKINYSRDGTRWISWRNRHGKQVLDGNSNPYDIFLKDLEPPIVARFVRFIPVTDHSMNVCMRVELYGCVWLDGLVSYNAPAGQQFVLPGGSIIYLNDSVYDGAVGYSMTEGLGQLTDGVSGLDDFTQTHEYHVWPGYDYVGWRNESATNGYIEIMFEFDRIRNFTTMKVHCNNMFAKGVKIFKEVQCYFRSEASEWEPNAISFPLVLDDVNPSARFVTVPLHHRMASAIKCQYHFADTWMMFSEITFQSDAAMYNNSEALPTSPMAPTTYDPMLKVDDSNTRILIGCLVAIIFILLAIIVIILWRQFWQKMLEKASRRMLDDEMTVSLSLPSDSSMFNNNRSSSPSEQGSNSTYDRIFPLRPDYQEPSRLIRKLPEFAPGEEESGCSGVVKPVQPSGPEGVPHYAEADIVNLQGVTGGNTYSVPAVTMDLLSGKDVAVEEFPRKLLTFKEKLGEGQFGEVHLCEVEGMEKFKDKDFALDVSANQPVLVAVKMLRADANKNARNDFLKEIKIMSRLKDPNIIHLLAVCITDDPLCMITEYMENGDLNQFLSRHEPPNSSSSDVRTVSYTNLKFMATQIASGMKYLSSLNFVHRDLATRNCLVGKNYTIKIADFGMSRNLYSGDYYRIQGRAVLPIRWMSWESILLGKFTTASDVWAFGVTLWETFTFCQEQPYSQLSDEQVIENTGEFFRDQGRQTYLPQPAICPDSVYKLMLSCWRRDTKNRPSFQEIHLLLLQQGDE
# Sequence of DAPK3 (ZIPK) (O43293 whole entry): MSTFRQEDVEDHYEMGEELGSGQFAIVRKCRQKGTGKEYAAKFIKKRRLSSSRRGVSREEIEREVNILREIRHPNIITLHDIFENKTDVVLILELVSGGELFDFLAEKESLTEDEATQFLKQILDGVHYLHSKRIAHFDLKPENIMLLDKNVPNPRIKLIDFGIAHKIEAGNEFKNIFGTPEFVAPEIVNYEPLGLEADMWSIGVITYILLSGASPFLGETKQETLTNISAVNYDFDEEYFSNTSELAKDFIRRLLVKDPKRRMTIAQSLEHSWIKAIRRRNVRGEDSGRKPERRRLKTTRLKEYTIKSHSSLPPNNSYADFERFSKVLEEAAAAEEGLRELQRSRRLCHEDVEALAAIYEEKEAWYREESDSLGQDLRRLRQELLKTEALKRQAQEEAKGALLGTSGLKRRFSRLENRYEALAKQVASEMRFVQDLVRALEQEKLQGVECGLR
# Sequence of KIT N822K (P10721 whole entry N822K): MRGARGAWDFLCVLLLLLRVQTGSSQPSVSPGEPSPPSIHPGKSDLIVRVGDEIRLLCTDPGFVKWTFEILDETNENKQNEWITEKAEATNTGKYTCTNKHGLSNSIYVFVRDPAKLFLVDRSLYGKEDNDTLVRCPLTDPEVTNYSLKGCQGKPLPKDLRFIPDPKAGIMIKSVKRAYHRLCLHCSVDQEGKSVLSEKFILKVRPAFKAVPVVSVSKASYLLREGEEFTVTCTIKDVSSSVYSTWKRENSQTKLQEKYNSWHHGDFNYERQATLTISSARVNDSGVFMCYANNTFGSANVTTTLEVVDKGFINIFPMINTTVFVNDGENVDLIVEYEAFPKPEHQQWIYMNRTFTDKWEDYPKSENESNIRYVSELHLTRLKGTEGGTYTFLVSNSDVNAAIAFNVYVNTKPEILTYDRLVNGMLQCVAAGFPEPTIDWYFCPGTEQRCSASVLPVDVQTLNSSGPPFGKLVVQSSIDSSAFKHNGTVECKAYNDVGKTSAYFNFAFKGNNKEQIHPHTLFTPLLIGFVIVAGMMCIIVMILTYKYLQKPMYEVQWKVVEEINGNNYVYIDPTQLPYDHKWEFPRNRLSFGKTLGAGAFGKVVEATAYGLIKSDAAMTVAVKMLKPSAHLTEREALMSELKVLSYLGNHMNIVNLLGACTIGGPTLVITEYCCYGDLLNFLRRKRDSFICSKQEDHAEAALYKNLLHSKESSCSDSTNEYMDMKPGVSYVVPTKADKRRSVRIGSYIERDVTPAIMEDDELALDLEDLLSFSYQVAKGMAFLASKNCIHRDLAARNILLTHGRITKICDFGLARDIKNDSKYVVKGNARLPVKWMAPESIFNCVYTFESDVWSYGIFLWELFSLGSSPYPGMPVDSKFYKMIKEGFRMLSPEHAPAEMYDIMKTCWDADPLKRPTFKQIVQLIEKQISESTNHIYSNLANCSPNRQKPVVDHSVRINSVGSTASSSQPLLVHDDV
# Sequence of KIT V654A (P10721 whole entry V654A): as the sequence (P10721 whole entry N822K) above, with V654A, K822N counted along it
# Sequence of VRK2 (Q86Y07 whole entry): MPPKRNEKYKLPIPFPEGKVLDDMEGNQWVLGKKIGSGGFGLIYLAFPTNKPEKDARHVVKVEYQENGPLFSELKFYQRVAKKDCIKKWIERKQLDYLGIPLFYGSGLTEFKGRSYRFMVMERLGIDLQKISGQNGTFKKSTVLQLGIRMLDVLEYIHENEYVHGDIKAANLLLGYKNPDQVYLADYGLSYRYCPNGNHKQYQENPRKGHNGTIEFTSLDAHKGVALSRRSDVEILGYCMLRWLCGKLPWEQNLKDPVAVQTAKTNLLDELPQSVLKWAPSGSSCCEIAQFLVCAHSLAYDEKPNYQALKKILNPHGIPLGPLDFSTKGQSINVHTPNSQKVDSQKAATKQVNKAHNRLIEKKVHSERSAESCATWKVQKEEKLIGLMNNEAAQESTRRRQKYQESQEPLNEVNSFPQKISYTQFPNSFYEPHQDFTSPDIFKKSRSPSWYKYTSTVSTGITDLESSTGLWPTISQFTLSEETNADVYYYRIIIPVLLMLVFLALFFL
# Sequence of CAMK1 (CaMK1) (Q14012 whole entry): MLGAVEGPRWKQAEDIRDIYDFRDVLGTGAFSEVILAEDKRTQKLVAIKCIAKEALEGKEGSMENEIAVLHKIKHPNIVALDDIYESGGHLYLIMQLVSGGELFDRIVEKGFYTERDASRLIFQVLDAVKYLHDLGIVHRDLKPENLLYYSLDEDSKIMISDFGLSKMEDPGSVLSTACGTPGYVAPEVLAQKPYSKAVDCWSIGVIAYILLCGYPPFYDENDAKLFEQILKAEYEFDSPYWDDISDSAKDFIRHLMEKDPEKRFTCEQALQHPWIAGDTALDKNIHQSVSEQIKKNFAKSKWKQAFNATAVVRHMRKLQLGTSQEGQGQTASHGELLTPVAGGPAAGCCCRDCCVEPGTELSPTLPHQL
smiles,measurement,setting,value
"COc1ccc2nc3cc(Cl)ccc3c(Nc3cc(CN4CCCC4)c(O)c(CN4CCCC4)c3)c2n1 [Pyronaridine, 4-[(7-Chloro-2-methoxybenzo[b][1,5]naphthyridin-10-yl)amino]-2,6-bis(1-pyrrolidinylmethyl)phenol phosphate (1:4)]",inhibition at 1 µM,ACVR2B,8%
same,inhibition at 1 µM,TGFBR1 (ALK5),-4%
same,inhibition at 1 µM,ABL1 Q252H,-10%
same,inhibition at 1 µM,STK17B (DRAK2),-4%
same,inhibition at 1 µM,LATS2,-4%
same,inhibition at 1 µM,VRK2,-4%
same,inhibition at 1 µM,KIT V654A,10%
same,inhibition at 1 µM,MYO3B (MYO3 beta),5%
same,inhibition at 1 µM,ACVR1 (ALK2),0%
same,inhibition at 1 µM,DDR2,0%
same,inhibition at 1 µM,SLK,-1%
same,inhibition at 1 µM,CDK3/cyclin E1,3%
same,inhibition at 1 µM,KIT N822K,14%
same,pIC50,CAMK1 (CaMK1),5.62
same,inhibition at 1 µM,YES1,-6%
same,inhibition at 1 µM,INSRR (IRR),-1%
same,inhibition at 1 µM,NEK9,0%
same,inhibition at 1 µM,PRKCA (PKC alpha),13%
same,inhibition at 1 µM,DAPK3 (ZIPK),2%
same,inhibition at 1 µM,SRPK1,1%
same,inhibition at 1 µM,MAPK11 (p38 beta),-8%
same,inhibition at 1 µM,NTRK2 (TRKB),1%
same,inhibition at 1 µM,PTK2B (FAK2),-1%
same,inhibition at 1 µM,JAK1,0%
same,inhibition at 1 µM,STK22D (TSSK1),6%
same,inhibition at 1 µM,PAK6,-2%
same,inhibition at 1 µM,ERBB2 (HER2),2%
same,inhibition at 1 µM,CLK3,-3%
same,inhibition at 1 µM,RET S891A,-3%
